Results reported in BindingDB's records for doi:10.1016/j.bmcl.2004.02.007 (Research Triangle Institute, 2004).

What was measured:
[1] = biological target: Neuronal acetylcholine receptor subunit alpha-3/beta-2 (Rattus norvegicus, UniProt P12390+P04757); test: Binding affinity towards rat Nicotinic acetylcholine receptor alpha3-beta2 expressed in Xenopus oocytes using [3H]epibatidine as radioligand
[2] = biological target: Neuronal acetylcholine receptor subunit alpha-4/beta-2 (Rattus norvegicus, UniProt P09483+P12390); test: Binding affinity towards rat Nicotinic acetylcholine receptor alpha4-beta2 expressed in Xenopus oocytes using [3H]epibatidine as radioligand
Neuronal acetylcholine receptor subunit alpha-4/beta-2, sequence (P09483 whole entry): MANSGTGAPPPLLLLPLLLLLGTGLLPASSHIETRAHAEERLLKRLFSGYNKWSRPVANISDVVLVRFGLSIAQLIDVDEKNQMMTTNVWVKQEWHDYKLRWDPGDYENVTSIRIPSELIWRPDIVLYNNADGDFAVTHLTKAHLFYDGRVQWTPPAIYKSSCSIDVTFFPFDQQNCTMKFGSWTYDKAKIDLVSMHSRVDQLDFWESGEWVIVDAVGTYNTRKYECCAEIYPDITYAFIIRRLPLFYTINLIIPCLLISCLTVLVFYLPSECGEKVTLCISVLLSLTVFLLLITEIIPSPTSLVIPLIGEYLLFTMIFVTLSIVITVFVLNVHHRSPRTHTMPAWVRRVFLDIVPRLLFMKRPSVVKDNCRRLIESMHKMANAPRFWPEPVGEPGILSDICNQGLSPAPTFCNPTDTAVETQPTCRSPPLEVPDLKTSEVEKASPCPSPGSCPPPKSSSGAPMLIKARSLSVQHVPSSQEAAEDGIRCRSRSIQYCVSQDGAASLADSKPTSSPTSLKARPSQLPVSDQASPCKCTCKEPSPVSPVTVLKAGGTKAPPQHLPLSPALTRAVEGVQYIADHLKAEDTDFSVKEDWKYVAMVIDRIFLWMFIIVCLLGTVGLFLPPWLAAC
Neuronal acetylcholine receptor subunit alpha-4/beta-2, sequence (P12390 whole entry): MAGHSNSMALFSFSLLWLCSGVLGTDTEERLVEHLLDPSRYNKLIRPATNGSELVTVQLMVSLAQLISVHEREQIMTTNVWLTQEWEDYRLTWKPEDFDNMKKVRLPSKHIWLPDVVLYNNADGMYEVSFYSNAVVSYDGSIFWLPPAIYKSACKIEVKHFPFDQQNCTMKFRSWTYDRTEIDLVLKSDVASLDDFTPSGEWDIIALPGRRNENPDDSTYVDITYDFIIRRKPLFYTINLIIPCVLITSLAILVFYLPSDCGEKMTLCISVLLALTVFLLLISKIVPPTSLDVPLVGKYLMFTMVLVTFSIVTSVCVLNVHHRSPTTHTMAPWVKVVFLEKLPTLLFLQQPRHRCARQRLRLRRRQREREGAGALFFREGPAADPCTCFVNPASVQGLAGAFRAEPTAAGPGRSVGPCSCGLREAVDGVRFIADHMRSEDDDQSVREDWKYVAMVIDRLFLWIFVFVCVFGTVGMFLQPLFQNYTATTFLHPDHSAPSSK

Neuronal acetylcholine receptor subunit alpha-3/beta-2, sequence (P12390 whole entry): as above
Neuronal acetylcholine receptor subunit alpha-3/beta-2, sequence (P04757 whole entry): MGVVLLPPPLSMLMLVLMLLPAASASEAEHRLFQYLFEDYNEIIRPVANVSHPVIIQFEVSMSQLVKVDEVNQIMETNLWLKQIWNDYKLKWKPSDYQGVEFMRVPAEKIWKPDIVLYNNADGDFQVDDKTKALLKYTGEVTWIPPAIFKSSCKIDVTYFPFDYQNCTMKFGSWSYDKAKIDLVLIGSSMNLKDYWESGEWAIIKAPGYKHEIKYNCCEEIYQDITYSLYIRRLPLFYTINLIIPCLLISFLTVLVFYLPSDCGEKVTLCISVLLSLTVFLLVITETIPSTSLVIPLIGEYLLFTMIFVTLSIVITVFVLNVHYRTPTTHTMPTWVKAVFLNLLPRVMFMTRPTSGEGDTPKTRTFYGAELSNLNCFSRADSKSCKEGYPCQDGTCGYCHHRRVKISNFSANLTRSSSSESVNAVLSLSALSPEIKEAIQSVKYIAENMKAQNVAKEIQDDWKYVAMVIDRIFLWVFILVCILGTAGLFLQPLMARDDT

SMILES	Ki [1] [pM]	Ki [2] [pM]
Fc1ccc(C2CC3CCC2N3)cn1 [(R)-2-(6-Fluoro-pyridin-3-yl)-7-aza-bicyclo[2.2.1]heptane]	4	–
c1cncc(C2CC3CCC2N3)c1 (configuration not stated) [2-(pyridin-3-yl)-7-aza-bicyclo[2.2.1]heptane]	–	9
